Measured values: ChEMBL document CHEMBL3826922, “Synthesis 4-[2-(2-mercapto-4-oxo-4H-quinazolin-3-yl)-ethyl]-benzenesulfonamides with subnanomolar carbonic anhydrase II and XII inhibitory properties” (Bioorg Med Chem, 2016)

Assays:
Carbonic anhydrase 2 = Carbonic anhydrase 2 (Homo sapiens, UniProt P00918); assay: Inhibition of human CA2 preincubated for 15 mins by stopped flow CO2 hydration assay
Carbonic anhydrase 1 = Carbonic anhydrase 1 (Homo sapiens, UniProt P00915); assay: Inhibition of human CA1 preincubated for 15 mins by stopped flow CO2 hydration assay
Carbonic anhydrase 1, sequence (P00915 whole entry): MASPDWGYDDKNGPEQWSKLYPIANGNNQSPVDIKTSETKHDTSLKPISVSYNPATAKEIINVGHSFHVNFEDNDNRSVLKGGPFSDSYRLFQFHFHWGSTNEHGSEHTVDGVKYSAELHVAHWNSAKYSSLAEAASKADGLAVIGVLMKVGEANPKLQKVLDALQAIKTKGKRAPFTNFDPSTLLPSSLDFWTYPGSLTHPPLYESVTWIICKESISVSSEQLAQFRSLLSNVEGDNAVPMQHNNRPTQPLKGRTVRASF

Carbonic anhydrase 12 = Carbonic anhydrase 12 (Homo sapiens, UniProt O43570); assay: Inhibition of human CA12 preincubated for 15 mins by stopped flow CO2 hydration assay
Carbonic anhydrase 12, sequence (O43570 whole entry): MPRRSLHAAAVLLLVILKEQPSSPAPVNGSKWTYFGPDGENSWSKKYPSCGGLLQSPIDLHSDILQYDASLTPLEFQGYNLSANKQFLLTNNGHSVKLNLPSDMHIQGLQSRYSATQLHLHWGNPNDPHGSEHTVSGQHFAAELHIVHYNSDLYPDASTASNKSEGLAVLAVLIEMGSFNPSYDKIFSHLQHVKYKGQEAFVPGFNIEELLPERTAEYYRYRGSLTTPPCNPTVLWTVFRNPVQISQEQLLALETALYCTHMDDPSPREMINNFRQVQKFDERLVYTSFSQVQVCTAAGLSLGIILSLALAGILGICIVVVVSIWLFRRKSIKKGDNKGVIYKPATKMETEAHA

- Ki (Carbonic anhydrase 2): 12.4 nM
- Ki (Carbonic anhydrase 1): 212 nM
- Ki (Carbonic anhydrase 12): 0.62 nM
SMILES: NS(=O)(=O)c1ccc(CCn2c(=S)[nH]c3ccc(F)cc3c2=O)cc1
